The text below walks through data of patent US8247556B2, “Method for preparing 6-substituted-7-aza-indoles” (Amgen Inc., priority 2005, dated 2012).

One experiment addresses T1, CYP 3A4 (Homo sapiens, UniProt P08684).
T1 construct: followed by 222.2 ml of 20 mg/mL HLM (BD Gentest); tissue BD Gentest; host or cells: human liver microsomes
The experiment is described as follows: Human Liver Microsome CYP 3A4 Inhibition. The experiment is classed as in vitro ADME. The note with it: human liver microsomes, midazolam substrate; read-out: inhibited CYP3A4 microsomes, IC50. The protocol:
Determining the IC-50 for Human Liver Microsome CYP 3A4 Inhibition
Postassium Phosphate Buffer pH 7.4 (39.667 mL) is chilled in an ice bath and added to a 50 ml plastic tube. A 2 mM midazolam solution is prepared. 111.1 ul of 2 mM midazolam is added to the buffer followed by 222.2 ml of 20 mg/mL HLM (BD Gentest). The incubation mixture was gently inverted and equilibrated at 37° C. for 5 min. A stock inhibitor solution is prepared, such as in DMSO. Incubation mixture (801 ul) is added into 96-well, 1.2 mL plastic tubes. Inhibitor is added at various concentrations (e.g. 30 uM to 120 nM). The tubes are sealed and mix by inverting 5 times gently. The incubation mixture containing inhibitor (270 uL) is added by aliquot into wells of a 1 mL, 96-well block (duplicate). The block is placed into a 37° C. water bath and equilibrated for 3 min. 10 mM NADPH (30 ml) is added to all samples. After 5 minutes, the reactions are stopped by adding 300 ml of Quench Solution [0.1% TFA in CH3CN]. 1′-OH-Midazolam-d313C (2 mg/mL 30 uL) is added, the block is gently vortexed then centrifuged at 3000 rpm for 10 minutes at 4° C. 50 μL of supernatant from all samples is added by aliquot into a shorter, 96-well block. The aliquoted supernatants are pooled with other assay(s) and HPLC Grade Water (50 ul) is added to all samples. After covering and shaking by vortex gently for 2 minutes, the solutions were analyzed by LC-MS (API 3000,5% MeOH w/0.1% AcOH to 95% MeOH w/0.1% AcOH). 37 nM ketoconazole is used as a control.

For the next experiment, the target named is T2, CYP 2D6 (Homo sapiens, UniProt P10635).
T2 construct: followed by 555.6 ml of 20 mg/mL HLM (BD Gentest); tissue BD Gentest; host or cells: human liver microsomes
Description: Human Liver Microsome CYP 2D6 Inhibition. The note with it: human liver microsomes, bufuralol substrate; read-out: inhibited CYP2D6 microsomes, IC50. Format: in vitro ADME. A digest of the protocol:
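Pooled human liver microsomes with bufuralol in potassium phosphate pH 7.4, preincubated with inhibitor at 37 °C; reaction started with NADPH, quenched after 5 min with 0.1% TFA in acetonitrile. 1′-OH-bufuralol quantified by LC-MS with deuterated internal standard; IC50 determined, quinidine 500 nM as control.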

Experiment [1] deals with VEGF-stimulated HUVEC proliferation (Human Umbilical Vein Endothelial cells). Description: HUVEC Proliferation Assay. The experiment is classed as cell-based. The note with it: VEGF 50 ng/mL, 72 h, CyQuant fluorescent dye, read-out: inhibited VEGF-stimulated HUVEC proliferation at a level. In outline: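 HUVEC (passage 2–3) were seeded in DMEM+10% FBS for 22 h, then pre-incubated 2–3 h with 5-point, 5-fold compound dilutions (0.25% DMSO). They were then stimulated with VEGF (50 ng/mL final) for 72 h at 37 °C. Proliferation was read by CyQuant fluorescence (485/530 nm) after freeze-thaw, and IC50 came from a 4-parameter fit.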

Bounds are passed on as bounds.

T1 sequence (P08684 whole entry): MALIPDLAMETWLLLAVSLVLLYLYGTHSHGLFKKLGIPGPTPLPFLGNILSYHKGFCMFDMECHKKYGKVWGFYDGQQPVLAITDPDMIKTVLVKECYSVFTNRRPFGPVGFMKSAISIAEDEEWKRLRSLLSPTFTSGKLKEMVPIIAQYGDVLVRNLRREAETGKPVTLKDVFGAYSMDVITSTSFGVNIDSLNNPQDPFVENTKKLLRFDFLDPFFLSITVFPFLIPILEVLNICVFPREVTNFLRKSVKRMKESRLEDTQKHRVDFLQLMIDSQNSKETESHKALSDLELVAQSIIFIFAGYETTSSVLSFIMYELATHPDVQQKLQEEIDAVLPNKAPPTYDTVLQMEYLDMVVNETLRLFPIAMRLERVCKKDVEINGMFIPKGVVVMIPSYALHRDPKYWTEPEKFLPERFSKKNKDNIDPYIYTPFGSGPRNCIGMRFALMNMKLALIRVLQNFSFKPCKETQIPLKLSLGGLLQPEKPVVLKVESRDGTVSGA
T2 sequence (P10635 whole entry): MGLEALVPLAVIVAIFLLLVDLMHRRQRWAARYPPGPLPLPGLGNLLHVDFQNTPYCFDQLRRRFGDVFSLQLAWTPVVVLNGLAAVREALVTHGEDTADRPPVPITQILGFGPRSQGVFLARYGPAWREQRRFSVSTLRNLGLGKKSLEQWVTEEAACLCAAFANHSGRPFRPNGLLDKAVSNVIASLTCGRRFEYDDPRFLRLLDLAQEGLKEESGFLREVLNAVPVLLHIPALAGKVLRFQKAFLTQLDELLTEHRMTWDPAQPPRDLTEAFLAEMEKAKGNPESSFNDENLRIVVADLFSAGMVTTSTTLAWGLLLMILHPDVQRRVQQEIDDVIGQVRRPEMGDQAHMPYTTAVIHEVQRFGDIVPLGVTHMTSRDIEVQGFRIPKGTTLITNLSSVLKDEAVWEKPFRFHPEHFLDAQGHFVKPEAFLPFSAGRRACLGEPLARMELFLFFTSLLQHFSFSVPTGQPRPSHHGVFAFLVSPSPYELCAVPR

Take `CC1(C)CNc2cc(NC(=O)c3cccnc3NCc3ccnc4[nH]ccc34)ccc21` [Example 16, N-(3,3-Dimethyl-2,3-dihydro-1H-indol-6-yl)-2-[(1H-pyrrolo[2,3-b]pyridin-4-ylmethyl)amino]nicotinamide]: the values for the IC50 (on CYP 3A4; at CYP 2D6; in experiment [1]) were greater than 20 µM, greater than 20 µM and less than 0.5 µM, respectively.
On to `CC(C)(C)c1ccc(NC(=O)c2cccnc2NCc2ccnc3c2CCN3)cc1` [Example 28, N-(4-tert-Butylphenyl)-2-[(2,3-dihydro-1H-pyrrolo[2,3-b]pyridin-4-ylmethyl)amino]nicotinamide], for which the figures for the IC50 (on CYP 3A4; on CYP 2D6; in experiment [1]) were greater than 20 µM, greater than 20 µM and less than 0.5 µM, respectively.
`CC1(C)CNc2cc(NC(=O)c3cccnc3NCc3ccnc4c3CCN4)ccc21` [Example 32, 2-[(2,3-Dihydro-1H-pyrrolo[2,3-b]pyridin-4-ylmethyl)amino]-N-(3,3-dimethyl-2,3-dihydro-1H-indol-6-yl)nicotinamide]: the IC50 at CYP 3A4 is greater than 20 µM; at CYP 2D6, greater than 20 µM; in experiment [1] it was less than 0.5 µM.
As to `CC1(C)CN(C(=O)[C@@H]2CCCO2)c2cc(NC(=O)c3cccnc3NCc3ccnc4[nH]ccc34)ccc21` [Example 34, N-{3,3-dimethyl-1-[(2S)-tetrahydrofuran-2-ylcarbonyl]-2,3-dihydro-1H-indol-6-yl}-2-[(1H-pyrrolo[2,3-b]pyridin-4-ylmethyl)amino]nicotinamide], the IC50 at CYP 3A4 was greater than 20 µM; on CYP 2D6, greater than 20 µM; in experiment [1] it was less than 0.5 µM.
In the case of `O=C(Nc1cc(OC[C@H]2CCCO2)cc(C(F)(F)F)c1)c1cccnc1NCc1ccnc2[nH]ccc12` [Example 36, 2-[(1H-pyrrolo[2,3-b]pyridin-4-ylmethyl)amino]-N-[3-[(2R)-tetrahydrofuran-2-ylmethoxy]-5-(trifluoromethyl)phenyl]nicotinamide], the IC50 at CYP 3A4 was greater than 20 µM; on CYP 2D6, greater than 20 µM; in experiment [1], less than 0.5 µM.
Take `CC1(C)CC(=O)Nc2cc(NC(=O)c3cccnc3NCc3c[nH]c4ncccc34)ccc21` [Example 41, N-(4,4-Dimethyl-2-oxo-1,2,3,4-tetrahydro-7-quinolinyl)-2-((1H-pyrrolo[2,3-b]pyridin-3-ylmethyl)amino)-3-pyridinecarboxamide]: the IC50 at CYP 3A4 is greater than 20 µM; at CYP 2D6, greater than 20 µM; in experiment [1] it was less than 0.5 µM.
As to `Cc1nc2cc(NC(=O)c3cccnc3NCc3ccnc4[nH]ccc34)ccc2s1` [Example 48, N-(2-methyl-1,3-benzothiazol-5-yl)-2-[(1H-pyrrolo[2,3-b]pyridin-4-ylmethyl)amino]nicotinamide], the IC50 was greater than 20 µM on CYP 3A4, greater than 20 µM at CYP 2D6 and less than 0.5 µM in experiment [1].
Regarding `CC(C)(C)c1cc(NC(=O)c2cccnc2NCc2ccnc3[nH]ccc23)no1` [Example 49, N-(5-tert-butylisoxazol-3-yl)-2-[(1H-pyrrolo[2,3-b]pyridin-4-ylmethyl)amino]nicotinamide], the IC50 on CYP 3A4 was greater than 20 µM; at CYP 2D6, greater than 20 µM; in experiment [1], less than 0.5 µM.
Take `O=C(Nc1ccc2ccccc2c1)c1cccnc1NCc1ccnc2[nH]ccc12` [Example 50, N-Naphthalen-2-yl-2-[(1H-pyrrolo[2,3-b]pyridin-4-ylmethyl)-amino]-nicotinamide]: the IC50 at CYP 3A4 was greater than 20 µM; at CYP 2D6, greater than 20 µM; in experiment [1], less than 0.5 µM.
As to `CC1(C)CNC(=O)c2cc(NC(=O)c3cccnc3NCc3ccnc4[nH]ccc34)ccc21` [Example 56, N-(4,4-Dimethyl-1-oxo-1,2,3,4-tetrahydro-isoquinolin-7-yl)-2-[(1H-pyrrolo[2,3-b]pyridin-4-ylmethyl)-amino]-nicotinamide], the results for the IC50 (on CYP 3A4; on CYP 2D6; in experiment [1]) were greater than 20 µM, greater than 20 µM and less than 0.5 µM, respectively.
